We go through six compounds from patent US6017962A, “Method of depletion of methionine in plasma and solid tumors and uses thereof” (Board of Regents, The University of Texas System, priority 1997, dated 2000).

SMILES strings stand for the structures. Where two headings read alike, the source gives them in different places.

Test [1] relates to MGMT. Conditions: some tumor cell lines; von Wronski et al., 1994; cited from earlier work.
For test [2], the system named is H-1944. The test can be described thus: Cytotoxicity of BCNU. It is filed as cell-based. Conditions: Homo sapiens, 1 h BCNU, 4 days. How it is done: (§1) The cytotoxicity of BCNU on cultured cells in MET^+ HCY^+ and MET^- HCY^+ was measured by a modification of the method of Branch et. al. (1993) as follows: methionine-dependent cells were seeded and cultured in MET^+ HCY^- in 35 mm petri dishes until they were nearly confluent. The cells were then transferred in MET^- HCY^+ and cultured for an additional 4 to 6 days at which time cell numbers were reduced due to cell death and inhibition of mitosis. Dead cells were removed and medium was replaced on a daily basis. Following this period in MET^- HCY^+ medium, remaining live cells were washed with PBS and then treated with various concentrations of BCNU in PBS for 1 hour at 37° C. while they were still attached. Subsequently, the BCNU was removed, replaced with MET^+ HCY^- medium and cultures were incubated for an additional 4 days at 37° C. in 6% CO2. At that time cells were trypsinized and counted using a Coulter-Counter (Coulter Electronics, Hialeah Fla.). The concentration of the drug that halves the growth rate of the tumor cells (IC50), was determined from plots of BCNU concentrations versus the percent change in cell numbers as compared to untreated controls within a four day interval from treatment (Jackson, 1992). The IC50 of BCNU on methionine-dependent cells cultured in MET^+ HCY^- or methionine independent cells cultured in either media was also determined by the same method.

Test [3] relates to U-87. Description: Cytotoxicity of BCNU. It is filed as cell-based. Particulars: Homo sapiens, U-87 MG, U-87 (mer^-), 1 h BCNU, 4 days. The method, then:
as §1

The subject of test [4] is D-341. The test can be described thus: Cytotoxicity of BCNU. Format: cell-based. Conditions: Homo sapiens, 1 h BCNU, 4 days. The method, then:
as §1

The subject of test [5] is H-1623. The test can be described thus: Cytotoxicity of BCNU. Format: cell-based. Particulars: Homo sapiens, 1 h BCNU, 4 days. How it is done:
as §1

The test system of test [6] is U-138. The test can be described thus: Cytotoxicity of BCNU. It is filed as cell-based. Conditions: Homo sapiens, 1 h BCNU, 4 days. How it is done:
as §1

Test [7] concerns NIH-3T3. The test can be described thus: Cytotoxicity of BCNU. It is filed as cell-based. Conditions: Mus musculus, NIH3T3, 1 h BCNU, 4 days. How it is done:
as §1

Test [8] deals with Daoy. Description: Cytotoxicity of BCNU. It is filed as cell-based. Particulars: Homo sapiens. How it is done: as §1
Test [9] concerns MET-independent or mer^- tumor cell lines and normal cells. Description: Cytotoxicity of BCNU (summary). Format: cell-based. Particulars: MET^- HCY^+ versus MET^+ HCY^-. The method, then:
as §1

Test [10] deals with Methionine-dependent, mer^+ tumor cells. Description: Cytotoxicity of BCNU (summary). Particulars: Homo sapiens. Format: cell-based. How it is done: as §1
In test [11] the test system is SW-40. Description: Cytotoxicity of BCNU. Format: cell-based, human. Particulars: for IC50: Homo sapiens, SW-40 (mer^-), 1 h BCNU, 4 days. How it is done: as §1
Test [12] relates to MGMT positive tumors. Particulars: prior depletion of MGMT; Dolan et al., 1993; Schold et al., 1996; cited from earlier work.
A short description of test [13]: Plasma methionine and thiols after diet, methionine precursor and methioninase. It is filed as in vivo, nude mice. Particulars: met^- hcy^- chl^- diet, 8 h after precursor 50 mg/kg ip, no methioninase. The method, then:
The methionine peak is marked with an asterik.
FIG. 7A: homocysteine thiolactone; FIG. 7B: homocysteine thiolactone+methioninase; FIG. 7C: homocystine; and FIG. 7D: homocystin+methioninase. All animals were killed 6 hours after the injection of the methionine precursor.
^1 Levels of total thiols in circulation 8 hours after injection (ip)
of met precursor and 6 hours after treatment with methioninase. Mean of 3
determinations ± SD. MET precursor was 50 mg/kg; methioninase
(abbreviated METH.) was 1000k U/kg.

In test [14] the test system is MGMT. Particulars: Daoy; 48 hrs from repletion following 10 days in HCY.
Protocol: Detaching cells ascertained to be dead by trypan blue exclusion were removed by changing the medium every 48 hours. Cells were then either trypsinized and reseeded in the same medium or washed with PBS and supplied with the methionine-HCY^+ medium. Due to extensive death in this medium, it was necessary to remove detaching dead cells on a daily basis. Cells from both media were harvested at time intervals indicated and used to measure cell cycle status and MGMT activity. Cells from either cultures (5×10^7) were also harvested, washed with PBS and immediately frozen as a source of protein, DNA and RNA. All cells collected were live (>95%) as determined by trypan blue exclusion.
The [^3 H]DNA substrate for measurements of MGMT activity was synthesized as follows: One mCi ethanolic solution of N-[^3 H]methyl-N-nitrosourea (MNU) having specific activity 18.8 Ci/mmol (Amersham) was concentrated to 0.2 ml with a N2 stream and mixed with 1 ml of DNA solution (5 mg) in 0.02 M 2-amino-2-methyl-1,3-propanediol at pH 10. […]
The [^3 H]DNA contained 29.8 μCi of radioactivity (alkylation efficiency 3%) which was distributed as 3-methyladenine 3.5%, 7-MeG 79.6%, 1-methyladenine 0.6%, O^6 -MeG 9.0% and other adducts 7.3%. The specific activities of 7-MeG and O^6 -MeG were calculated to be 15.8±0.8 and 16.5±0.5 Ci/mmol respectively. […]
For test [15], the system named is Daoy. Particulars: 48 hrs from repletion following 10 days in HCY.
[16] abbreviates: MET^+ HCY^- culture, read-out: IC50 (MET).
Setting [17] is: MET^- HCY^+ culture, read-out: IC50 (HCY).

Consider `Nc1ncn([C@@H]2O[C@H](CO)[C@@H](O)[C@H]2O)c(=O)n1` [5-azacytidine], for which the “increase of the MGMT activity” value in test [1] is recorded as “substantial increase”.

Usually IC50 stands for the midpoint of a concentration-inhibition curve. For `O=NN(CCCl)C(=O)NCCCl` [BCNU, 1,3-bis (2-chloroethyl)-1-nitrosourea], the IC50 was 65 µM in test [2] (NCI-H1944, MET^+ HCY^- culture, read-out: IC50 (MET)); 10 µM in test [2] (NCI-H1944, MET^- HCY^+ culture, read-out: IC50 (HCY)); 15 µM in test [3] (setting [16]); 15 µM in [3] (setting [17]); 65 µM in [4] (D341, MET^+ HCY^- culture, read-out: IC50 (MET)); 10 µM in [4] (D341, MET^- HCY^+ culture, read-out: IC50 (HCY)). Moreover, the IC50 came out at 90 µM in test [5] (NCI-H1623, MET^+ HCY^- culture, read-out: IC50 (MET)); 10 µM in test [5] (NCI-H1623, MET^- HCY^+ culture, read-out: IC50 (HCY)); 50 µM in [6] (setting [16]); 10 µM in [6] (setting [17]); 35 µM in test [7] (NIH-3T3, control mer+, methionine independent, MET^+ HCY^- culture, read-out: IC50 (MET)); 40 µM in test [7] (NIH-3T3, MET^- HCY^+ culture, read-out: IC50 (HCY)). Besides, the IC50 in test [8] (MET^+ HCY^- culture, 1 h BCNU, counted after 4 days, read-out: IC50 (MET)) is 45 µM; in test [8] (cultured in MET^- HCY^+ 4 days before 1 h BCNU, read-out: IC50 (HCY)), ~5 µM; in test [10] (cultured in MET^+ HCY^-) it was 45 to 90 µM; in [10] (cultured in MET^- HCY^+), 5 to 10 µM; in test [11] (setting [16]), 10 µM; in test [11] (setting [17]), 15 µM. For the same compound, the “sensitivity to BCNU” value in test [9] was “unaffected”. Also, the “resistance to BCNU upon methionine depletion” value in [11] (SWB-40, mer^-, methionine-dependent) is listed as “not affected”.

On to `Nc1nc(OCc2ccccc2)c2[nH]cnc2n1` [O^6 -benzylguanine], for which, in [12], the “increase in the efficacy of alkylating drugs such as BCNU” value is recorded as “Significant increase”.

Take `NC1CCSC1=O` (centres unmarked) [homocysteine thiolactone]: in [13], the CYS came out at 100 ± 13 µM, the GSH is 81 µM, the HCY amounted to 20 ± 3 µM and the MET came out at 12 ± 3 µM.

In [13], `N[C@@H](CCSSCC[C@H](N)C(=O)O)C(=O)O` [homocystine] returned a CYS of 100 ± 4 µM, a GSH of 56 ± 8 µM, an HCY of 17 ± 2 µM and an MET of 6 ± 2 µM.

For `CSCC[C@H](N)C(=O)O` [methionine], the “recovery of MGMT activity” value in test [14] is listed as 65 % of the base line. Also, the “doubling time after repletion of methionine” value in [15] came out at 22 h.
